Our source for the IC50 values is patent US10829452B2, “Histone methyltransferase inhibitors” (GLOBAL BLOOD THERAPEUTICS, INC., priority 2016, dated 2020).

The assay addresses T1, G9a (Homo sapiens, UniProt Q96KQ7).
T1 sequence (Q96KQ7 1-1210): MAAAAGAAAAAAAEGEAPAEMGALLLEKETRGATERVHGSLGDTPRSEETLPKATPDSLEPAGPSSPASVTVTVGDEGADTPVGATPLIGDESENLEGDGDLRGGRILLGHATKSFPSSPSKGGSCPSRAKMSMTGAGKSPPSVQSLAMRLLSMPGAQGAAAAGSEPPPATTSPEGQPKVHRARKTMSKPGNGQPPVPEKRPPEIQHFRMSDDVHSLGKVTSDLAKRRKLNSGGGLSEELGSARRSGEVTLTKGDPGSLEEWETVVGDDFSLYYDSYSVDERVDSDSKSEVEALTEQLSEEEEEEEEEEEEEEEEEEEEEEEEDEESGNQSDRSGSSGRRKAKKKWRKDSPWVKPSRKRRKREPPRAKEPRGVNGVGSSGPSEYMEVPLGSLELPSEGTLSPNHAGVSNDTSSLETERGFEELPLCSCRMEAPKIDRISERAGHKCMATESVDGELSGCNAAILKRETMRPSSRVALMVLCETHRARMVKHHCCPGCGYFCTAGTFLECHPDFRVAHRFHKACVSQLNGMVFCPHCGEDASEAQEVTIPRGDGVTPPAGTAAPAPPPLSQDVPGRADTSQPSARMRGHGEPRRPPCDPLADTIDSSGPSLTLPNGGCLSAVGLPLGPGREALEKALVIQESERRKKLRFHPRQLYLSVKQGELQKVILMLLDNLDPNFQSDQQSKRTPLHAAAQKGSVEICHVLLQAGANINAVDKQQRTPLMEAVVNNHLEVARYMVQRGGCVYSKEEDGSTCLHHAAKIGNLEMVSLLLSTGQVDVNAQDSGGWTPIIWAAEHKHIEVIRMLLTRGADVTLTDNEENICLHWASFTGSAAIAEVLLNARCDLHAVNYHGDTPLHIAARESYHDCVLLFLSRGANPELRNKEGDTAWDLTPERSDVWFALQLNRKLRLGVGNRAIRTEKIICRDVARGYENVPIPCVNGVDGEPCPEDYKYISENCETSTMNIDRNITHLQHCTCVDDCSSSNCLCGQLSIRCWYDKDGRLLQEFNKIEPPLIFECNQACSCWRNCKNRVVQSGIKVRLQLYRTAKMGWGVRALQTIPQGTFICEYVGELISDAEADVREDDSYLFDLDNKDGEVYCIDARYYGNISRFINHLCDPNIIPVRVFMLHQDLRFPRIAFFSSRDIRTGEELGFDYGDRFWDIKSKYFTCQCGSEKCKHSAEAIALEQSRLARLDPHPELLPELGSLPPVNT
In words: G9a AlphaLISA enzymatic activity assay. The assay is classed as biochemical. The settings on record: 0.15 nM G9a, 15 uM S-adenosyl-methionine, 100 nM biotinylated histone 3 peptide (1-21), 1 hour at room temperature; read-out: G9a in (uM) (IC50, concentration that produced 50% inhibition). The method in brief:
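Human G9a (0.15 nM) methylated 100 nM biotinylated histone H3(1-21) peptide with 15 uM SAM in Tris-HCl pH9 buffer with NaCl, Tween-20 and DTT, 1 h at room temperature. H3K9me2 was detected by AlphaLISA acceptor/streptavidin donor beads (20 ug/mL each); IC50 from percent inhibition across compound dilutions.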
A general note: Alpha assays give light when donor and acceptor beads are brought close together.

Structures can show the parent of a compound that is named as a salt. Bounds are passed on as bounds.

As to `CNc1nc2cc(OCCCN3CCCC3)c(OC)cc2c2c1CC(O)CC2` (stereo not drawn) [Example 61, 2-methoxy-6-(methylamino)-3-[3-(pyrrolidin-1-yl)propoxy]-7,8,9,10-tetrahydrophenanthridin-8-ol formate], the IC50 was determined as 0.14 µM. Next, `COc1cc2c3c(c(NC4(C(=O)O)CC4)nc2cc1OCCCN1CCCC1)CCC3` [Example 62, 1-({8-methoxy-7-[3-(pyrrolidin-1-yl)propoxy]-1H,2H,3H-cyclopenta[c]quinolin-4-yl}amino)cyclopropane-1-carboxylic acid formate]: 0.12 µM; `COc1cc2c3c(c(NC(C)C)nc2c(F)c1OCCCN1CCCC1)CCC3` [Example 63, 6-fluoro-8-methoxy-N-(propan-2-yl)-7-[3-(pyrrolidin-1-yl)propoxy]-1H,2H,3H-cyclopenta[c]quinolin-4-amine formate]: 2.3 µM.

As for `COc1cc2c3c(c(N[C@H]4C[C@H](O)C4)nc2cc1OCCCN1CCCC1)CCCC3` [Example 64, 3-({2-methoxy-3-[3-(pyrrolidin-1-yl)propoxy]-7,8,9,10-tetrahydrophenanthridin-6-yl}amino)cyclobutan-1-ol formate], the IC50 was determined as 0.5 µM. Turning to `COc1cc2c3c(c(NCC(F)(F)F)nc2cc1OCCCN1CCCC1)CCC3` [Example 65, 8-methoxy-7-[3-(pyrrolidin-1-yl)propoxy]-N-(2,2,2-trifluoroethyl)-1H,2H,3H-cyclopenta[c]quinolin-4-amine formate], the IC50 was determined as 0.74 µM. In the case of `COc1cc2c3c(c(NCCC(F)(F)F)nc2cc1OCCCN1CCCC1)CCC3` [Example 66, 8-methoxy-7-[3-(pyrrolidin-1-yl)propoxy]-N-(3,3,3-trifluoropropyl)-1H,2H,3H-cyclopenta[c]quinolin-4-amine], the IC50 came to 0.22 µM.

Turning to `COc1cc2c3c(c(NCC(F)(F)F)nc2cc1OCCCN1CCCC1)CCCC3` [Example 67, 2-methoxy-3-[3-(pyrrolidin-1-yl)propoxy]-N-(2,2,2-trifluoroethyl)-7,8,9,10-tetrahydrophenanthridin-6-amine formate], the IC50 turned out to be 2 µM. Then `COc1cc2c3c(c(NC(C)C)nc2cc1OCCCN1CCCC1)CC(O)CC3` (stereo not drawn) [Example 68, 2-methoxy-6-[(propan-2-yl)amino]-3-[3-(pyrrolidin-1-yl)propoxy]-7,8,9,10-tetrahydrophenanthridin-8-ol trifluoroacetate], with 0.11 µM; and `COc1cc2c3c(c(N(C)c4ccccc4)nc2cc1OCCCN1CCCC1)CCC3` [Example 69, 8-methoxy-N-methyl-N-phenyl-7-[3-(pyrrolidin-1-yl)propoxy]-1H,2H,3H-cyclopenta[c]quinolin-4-amine trifluoroacetate], with over 10 µM.

For the molecule `COc1cc2c3c(c(NC(C)C)nc2cc1OCCCN1CCCC1)CN(C)CC3` [Example 71, 9-methoxy-3-methyl-N-(propan-2-yl)-8-[3-(pyrrolidin-1-yl)propoxy]-1H,2H,3H,4H-benzo[c]2,7-naphthyridin-5-amine formate], the IC50 was found to be 1.1 µM. In the case of `COc1cc2c3c(c(N(C)C4CCCC4)nc2cc1OCCCN1CCCC1)CCC3` [Example 73, N-cyclopentyl-8-methoxy-N-methyl-7-[3-(pyrrolidin-1-yl)propoxy]-1H,2H,3H-cyclopenta[c]quinolin-4-amine trifluoroacetate], the IC50 was determined as 1.9 µM.

`CCNc1nc2cc(OCCCN3CCCC3)c(OC)cc2c2c1CC(C)(C)C2` [Example 74, N-ethyl-8-methoxy-2,2-dimethyl-7-[3-(pyrrolidin-1-yl)propoxy]-1H,2H,3H-cyclopenta[c]quinolin-4-amine formate]: the IC50 worked out at 0.015 µM. Next, `COc1cc2c3c(cnc2cc1OCCCN1CCCC1)CCC(C)(C)N3` [Example 75, 1-[3-({9-methoxy-2,2-dimethyl-1H,2H,3H,4H-benzo[h]1,6-naphthyridin-8-yl}oxy)propyl]pyrrolidine formate]: 0.014 µM; `COc1cc2c3c(c(C4CC4)nc2cc1OCCCN1CCCC1)CCC(C)(C)N3` [Example 76, 1-[3-({5-cyclopropyl-9-methoxy-2,2-dimethyl-1H,2H,3H,4H-benzo[h]1,6-naphthyridin-8-yl}oxy)propyl]pyrrolidine formate]: 0.013 µM; `COc1cc2c3c(c(C(C)C)nc2cc1OCCCN1CCCC1)CCC(C)(C)N3` [Example 77, 1-(3-{[9-methoxy-2,2-dimethyl-5-(propan-2-yl)-1H,2H,3H,4H-benzo[h]1,6-naphthyridin-8-yl]oxy}propyl)pyrrolidine formate]: 0.007 µM. Turning to `COc1cc2c3c(c(C)nc2cc1OCCCN1CCCC1)CCC(C)(C)N3` [Example 78, 1-[3-({9-methoxy-2,2,5-trimethyl-1H,2H,3H,4H-benzo[h]1,6-naphthyridin-8-yl}oxy)propyl]pyrrolidine], the IC50 stood at 0.003 µM. Next, `COc1cc2c3c(c(C4CCCC4)nc2cc1OCCCN1CCCC1)CCCCN3` [Example 79, 1-[3-({6-cyclopentyl-10-methoxy-1H,2H,3H,4H,5H-azepino[3,2-c]quinolin-9-yl}oxy)propyl]pyrrolidine triflate]: 0.003 µM.

Take `COc1cc2c3c(c(C4CC4)nc2cc1OCCCN1CCCC1)CCCCN3` [Example 80, 1-[3-({6-cyclopropyl-10-methoxy-1H,2H,3H,4H,5H-azepino[3,2-c]quinolin-9-yl}oxy)propyl]pyrrolidine trifluoroacetate]: the IC50 amounted to 0.009 µM. Then `COc1cc2c3c(c(C(C)C)nc2cc1OCCCN1CCCC1)CCCCN3` [Example 81, 1-(3-{[10-methoxy-6-(propan-2-yl)-1H,2H,3H,4H,5H-azepino[3,2-c]quinolin-9-yl]oxy}propyl)pyrrolidine trifluoroacetate], with 0.009 µM. Regarding `COc1cc2c3c(c(C)nc2cc1OCCCN1CCCC1)CCCCN3` [Example 82, 1-[3-({10-methoxy-6-methyl-1H,2H,3H,4H,5H-azepino[3,2-c]quinolin-9-yl}oxy)propyl]pyrrolidine trifluoroacetate], the IC50 came out at 0.006 µM. Then `COc1cc2c3c(c(C4=CCCC4)nc2cc1OCCCN1CCCC1)CC(C)(C)N3` [Example 83, 1-(3-{[4-(cyclopent-1-en-1-yl)-8-methoxy-2,2-dimethyl-1H,2H,3H-pyrrolo[3,2-c]quinolin-7-yl]oxy}propyl)pyrrolidine], with 0.009 µM; and `CC(C)Nc1nc2cc(OCCCN3CCCC3)c(O)cc2c2c1CCC2` [Example 84, 4-[(propan-2-yl)amino]-7-[3-(pyrrolidin-1-yl)propoxy]-1H,2H,3H-cyclopenta[c]quinolin-8-ol trifluoroacetate], with 1.6 µM. Next, `COc1cc2c3c(c(NC(C)C)nc2cc1OCCCN1CCCCC1)CCC3` [Example 85, 8-methoxy-7-[3-(piperidin-1-yl)propoxy]-N-(propan-2-yl)-1H,2H,3H-cyclopenta[c]quinolin-4-amine formate]: 0.66 µM; `COc1cc2c3c(c(NC(C)C)nc2cc1OCCCN1CCC(C)(C)C1)CCC3` [Example 86, 7-[3-(3,3-dimethylpyrrolidin-1-yl)propoxy]-8-methoxy-N-(propan-2-yl)-1H,2H,3H-cyclopenta[c]quinolin-4-amine formate]: over 10 µM; `COc1cc2c3c(c(NCCC(C)C)nc2cc1OCCCN1CCCC1)CC(C)(C)C3` [Example 87, 8-methoxy-2,2-dimethyl-N-(3-methylbutyl)-7-[3-(pyrrolidin-1-yl)propoxy]-1H,2H,3H-cyclopenta[c]quinolin-4-amine formate]: 0.15 µM. For the molecule `COc1cc2c3c(c(N[C@@H](C)C4CC4)nc2cc1OCCCN1CCCC1)CCC3` [Example 88, N-[(1S)-1-cyclopropylethyl]-8-methoxy-7-[3-(pyrrolidin-1-yl)propoxy]-1H,2H,3H-cyclopenta[c]quinolin-4-amine formate], the IC50 amounted to 0.003 µM. Next, `COc1cc2c3c(c(N[C@H](C)C4CC4)nc2cc1OCCCN1CCCC1)CCC3` [Example 89, N-[(1R)-1-cyclopropylethyl]-8-methoxy-7-[3-(pyrrolidin-1-yl)propoxy]-1H,2H,3H-cyclopenta[c]quinolin-4-amine formate]: 0.14 µM.
